Values quoted from earlier work as cited in US20210170044A1, “SYSTEMS AND METHODS FOR LYSOSOME INDUCED IMMUNOGENIC CELL DEATH” (Antigenesis LLC, priority 2017, published 2021).

System: advanced hepatocellular carcinoma
Settings: patients with advanced hepatocellular carcinoma receiving 5-fluorouracil; pravastatin as well vs control group

In the case of `O=c1[nH]cc(F)c(=O)[nH]1` [5-fluoroucacil], the median survival time is listed as 9 months.
